Reference: ChEMBL document CHEMBL1201862, “PubChem BioAssay data set” (2004)
“And” between values parts separate entries of the source, which are not always exact repeats. Equal values may be shown once.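 Each compound was tested at five concentrations against cells in 96-well plates for 48 hours. The concentration for 50% growth inhibition is given as GI50.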 The source made the active and inactive calls. Rule as the data show it: active = GI50 up to about 1.1 µM and inactive = higher.

What was measured:
Assay in all cases: inhibition of tumour cell growth, NCI panel, 48 h
SK-MEL-2 = test system: SK-MEL-2
MCF7 = test system: MCF7
Malme-3M = test system: Malme-3M
LOX IMVI = test system: LOX IMVI
SR = test system: SR
HL-60 = test system: HL-60
CCRF-CEM = test system: CCRF-CEM
A498 = test system: A498
BT-549 = test system: BT-549
OVCAR-5 = test system: OVCAR-5
CAKI-1 = test system: CAKI-1
SK-MEL-5 = test system: SK-MEL-5
SF-539 = test system: SF-539
SK-MEL-28 = test system: SK-MEL-28
NCI-H23 = test system: NCI-H23
UO-31 = test system: UO-31
MOLT-4 = test system: MOLT-4
RXF 393 = test system: RXF 393
HCT-15 = test system: HCT-15
MDA-MB-435 = test system: MDA-MB-435
K562 = test system: K562
SNB-19 = test system: SNB-19
UACC-257 = test system: UACC-257
MDA-MB-231 = test system: MDA-MB-231
786-0 = test system: 786-0
HCT-116 = test system: HCT-116
OVCAR-8 = test system: OVCAR-8
SW-620 = test system: SW-620
IGROV-1 = test system: IGROV-1
SK-OV-3 = test system: SK-OV-3
ACHN = test system: ACHN
COLO 205 = test system: COLO 205
SF-295 = test system: SF-295
NCI-H522 = test system: NCI-H522
SNB-75 = test system: SNB-75
PC-3 = test system: PC-3
U-251 = test system: U-251
NCI/ADR-RES = test system: NCI/ADR-RES
MDA-N = test system: MDA-N
HOP-92 = test system: HOP-92
DU-145 = test system: DU-145
TK-10 = test system: TK-10
SN12C = test system: SN12C
OVCAR-4 = test system: OVCAR-4
HT-29 = test system: HT-29
Hs-578T = test system: Hs-578T
EKVX = test system: EKVX
A549 = test system: A549
KM12 = test system: KM12
HOP-62 = test system: HOP-62
RPMI-8226 = test system: RPMI-8226
SF-268 = test system: SF-268
UACC-62 = test system: UACC-62
M14 = test system: M14
HCC 2998 = test system: HCC 2998
T47D = test system: T47D
NCI-H226 = test system: NCI-H226
OVCAR-3 = test system: OVCAR-3
NCI-H460 = test system: NCI-H460

CC(C)(C)C1CCC2c3c([nH]c4ccccc34)C3C(=O)N(c4ccc(Cl)cc4)C(=O)C3C2C1 (stereo unspecified) was tested, and the GI50 (SK-MEL-2) was > 10 µM (inactive), the GI50 (MCF7) was 31.3 µM (inactive) and the GI50 (Malme-3M) was > 10 µM (inactive). For the same molecule, the GI50 (LOX IMVI) was 0.012 µM (active), the GI50 (SR) was > 10 µM (inactive) and 18 µM (inactive) and the GI50 (HL-60) was > 10 µM (inactive) and 17.7 µM (inactive). The GI50 (CCRF-CEM) was > 10 µM (inactive) and 19.5 µM (inactive), the GI50 (A498) was > 10 µM (inactive) and the GI50 (BT-549) was > 100 µM (inactive). For the same molecule, the GI50 (OVCAR-5) was 0.0209 µM (active).

In the case of CC1=C(C#N)C(C#N)(C#N)C(NN(C)C)C1 (stereo unspecified), the GI50 (CAKI-1) is reported as 1.71 µM (inactive), the GI50 (SK-MEL-5) is reported as 4.49 µM (inactive) and the GI50 (SF-539) is reported as 36.1 µM (inactive). The GI50 (SK-MEL-28) was 23 µM (inactive), the GI50 (NCI-H23) was 17.1 µM (inactive) and the GI50 (UO-31) was 13.5 µM (inactive). The GI50 (MOLT-4) was 18.5 µM (inactive), the GI50 (RXF 393) was 13 µM (inactive) and the GI50 (HCT-15) was 7.38 µM. For the same molecule, the GI50 (SK-MEL-2) was 20.2 µM (inactive), the GI50 (MDA-MB-435) was 23.7 µM (inactive) and the GI50 (K562) was 12.2 µM (inactive). For the same molecule, the GI50 (MCF7) was 10.6 µM (inactive), the GI50 (Malme-3M) was 17.7 µM (inactive) and the GI50 (SNB-19) was > 10 µM (inactive). For the same molecule, the GI50 (UACC-257) was 10.6 µM (inactive), the GI50 (MDA-MB-231) was 14.2 µM (inactive) and the GI50 (786-0) was 8.99 µM (inactive). The GI50 (HCT-116) was 11 µM (inactive), the GI50 (OVCAR-8) was 26.3 µM (inactive) and the GI50 (SW-620) was 17.3 µM (inactive). For the same molecule, the GI50 (IGROV-1) was 17.8 µM (inactive), the GI50 (SK-OV-3) was > 100 µM (inactive) and the GI50 (ACHN) was 13.3 µM (inactive). The GI50 (COLO 205) was 3.83 µM (inactive), the GI50 (SF-295) was 24.5 µM (inactive) and the GI50 (LOX IMVI) was 12.6 µM (inactive). The GI50 (NCI-H522) was 4.07 µM (inactive), the GI50 (SNB-75) was 21.4 µM (inactive) and the GI50 (PC-3) was 20.4 µM (inactive). The GI50 (U-251) was 33.9 µM (inactive), the GI50 (NCI/ADR-RES) was 23.8 µM (inactive) and the GI50 (SR) was 25.4 µM (inactive). The GI50 (MDA-N) was 10.1 µM (inactive), the GI50 (HL-60) was 3.59 µM (inactive) and the GI50 (HOP-92) was 15.1 µM (inactive). The GI50 (DU-145) was 15.7 µM (inactive), the GI50 (TK-10) was 17 µM (inactive) and the GI50 (SN12C) was 14.1 µM (inactive). The GI50 (OVCAR-4) was 30.7 µM (inactive), the GI50 (HT-29) was 15.4 µM (inactive) and the GI50 (Hs-578T) was > 100 µM (inactive). The GI50 (EKVX) was 14 µM (inactive), the GI50 (CCRF-CEM) was 3.59 µM (inactive) and the GI50 (A549) was 41.5 µM (inactive). The GI50 (A498) was 20.9 µM (inactive), the GI50 (KM12) was 16.6 µM (inactive) and the GI50 (OVCAR-5) was 23.3 µM (inactive). The GI50 (HOP-62) was 16.7 µM (inactive), the GI50 (RPMI-8226) was 10.9 µM (inactive) and the GI50 (SF-268) was 21.7 µM (inactive). The GI50 (UACC-62) was 15.9 µM (inactive), the GI50 (M14) was 29 µM (inactive) and the GI50 (HCC 2998) was 17.2 µM (inactive). For the same molecule, the GI50 (T47D) was 6.15 µM (inactive).

With COc1ccc2c(c1)CCN1CCc3cc(OC)c(OC)cc3CC21 (stereo unspecified) the GI50 (CAKI-1) was > 100 µM (inactive), the GI50 (SF-539) was 76.4 µM (inactive) and the GI50 (SK-MEL-28) was > 100 µM (inactive). For the same molecule, the GI50 (NCI-H23) was 98.9 µM (inactive), the GI50 (UO-31) was 31.8 µM (inactive) and the GI50 (MOLT-4) was 39.4 µM (inactive). For the same molecule, the GI50 (RXF 393) was 69 µM (inactive), the GI50 (HCT-15) was 61 µM and the GI50 (MDA-MB-435) was 66.1 µM (inactive). For the same molecule, the GI50 (K562) was 34.9 µM (inactive), the GI50 (MCF7) was 90.4 µM (inactive) and the GI50 (SNB-19) was 82 µM (inactive). The GI50 (UACC-257) was 93.8 µM (inactive), the GI50 (MDA-MB-231) was > 100 µM (inactive) and the GI50 (786-0) was > 100 µM (inactive). The GI50 (HCT-116) was 41.9 µM (inactive), the GI50 (OVCAR-8) was > 100 µM (inactive) and the GI50 (SW-620) was 80.5 µM (inactive). The GI50 (IGROV-1) was > 10 µM (inactive), the GI50 (SK-OV-3) was > 100 µM (inactive) and the GI50 (ACHN) was > 100 µM (inactive). For the same molecule, the GI50 (COLO 205) was 21.3 µM (inactive), the GI50 (SF-295) was > 100 µM (inactive) and the GI50 (NCI-H226) was > 100 µM (inactive). The GI50 (LOX IMVI) was 33 µM (inactive), the GI50 (NCI-H522) was > 10 µM (inactive) and the GI50 (SNB-75) was 66.7 µM (inactive). For the same molecule, the GI50 (U-251) was 72.3 µM (inactive), the GI50 (NCI/ADR-RES) was > 100 µM (inactive) and the GI50 (SR) was 39.8 µM (inactive). For the same molecule, the GI50 (HOP-92) was 89.3 µM (inactive), the GI50 (DU-145) was > 100 µM (inactive) and the GI50 (TK-10) was > 100 µM (inactive). The GI50 (SN12C) was > 100 µM (inactive), the GI50 (OVCAR-4) was > 100 µM (inactive) and the GI50 (HT-29) was 35 µM (inactive). For the same molecule, the GI50 (Hs-578T) was 89.5 µM (inactive), the GI50 (EKVX) was > 10 µM (inactive) and the GI50 (CCRF-CEM) was 55 µM (inactive). The GI50 (A549) was > 100 µM (inactive), the GI50 (A498) was > 100 µM (inactive) and the GI50 (KM12) was 88.5 µM (inactive). For the same molecule, the GI50 (BT-549) was 10.3 µM (inactive), the GI50 (OVCAR-5) was > 100 µM (inactive) and the GI50 (RPMI-8226) was 65.5 µM (inactive). For the same molecule, the GI50 (SF-268) was 28.9 µM (inactive), the GI50 (UACC-62) was 32.6 µM (inactive) and the GI50 (M14) was 58.5 µM (inactive). The GI50 (HCC 2998) was 38.3 µM (inactive) and the GI50 (T47D) was 73.3 µM (inactive).

In the case of Cc1c(-c2c(C)c3ccccc3n2S(=O)(=O)c2ccccc2)n(S(=O)(=O)c2ccccc2)c2ccccc12, the GI50 (CAKI-1) is reported as 0.336 µM (active), the GI50 (SF-539) is reported as 0.0371 µM (active) and the GI50 (SK-MEL-28) is reported as > 100 µM (inactive). The GI50 (NCI-H23) was > 72.8 µM (inactive), the GI50 (UO-31) was > 100 µM (inactive) and the GI50 (MOLT-4) was > 100 µM (inactive). For the same molecule, the GI50 (SK-MEL-2) was > 37.5 µM (inactive), the GI50 (MDA-MB-435) was > 100 µM (inactive) and the GI50 (K562) was > 100 µM (inactive). The GI50 (Malme-3M) was 0.0299 µM (active), the GI50 (SNB-19) was > 93.5 µM (inactive) and the GI50 (UACC-257) was > 100 µM (inactive). For the same molecule, the GI50 (MDA-MB-231) was > 56.4 µM (inactive), the GI50 (OVCAR-3) was 5.62 µM (inactive) and the GI50 (786-0) was 0.019 µM (active). The GI50 (SK-OV-3) was > 82.6 µM (inactive), the GI50 (SF-295) was > 100 µM (inactive) and the GI50 (NCI-H226) was > 39.9 µM (inactive). The GI50 (NCI-H522) was > 100 µM (inactive), the GI50 (SNB-75) was > 31.6 µM (inactive) and the GI50 (PC-3) was > 37.1 µM (inactive). For the same molecule, the GI50 (NCI/ADR-RES) was > 80 µM (inactive), the GI50 (HL-60) was > 100 µM (inactive) and the GI50 (HOP-92) was > 100 µM (inactive). The GI50 (TK-10) was > 100 µM (inactive), the GI50 (NCI-H460) was 0.0407 µM (active) and the GI50 (Hs-578T) was > 100 µM (inactive). The GI50 (EKVX) was > 100 µM (inactive), the GI50 (CCRF-CEM) was > 100 µM (inactive) and the GI50 (A498) was > 100 µM (inactive). The GI50 (BT-549) was > 100 µM (inactive), the GI50 (OVCAR-5) was > 51.6 µM (inactive) and the GI50 (RPMI-8226) was > 100 µM (inactive). For the same molecule, the GI50 (SF-268) was > 100 µM (inactive), the GI50 (UACC-62) was > 29.1 µM (inactive) and the GI50 (M14) was > 22.2 µM (inactive).
